# Source: ChEMBL document CHEMBL3885881, “DrugMatrix”
# Organism: Rattus norvegicus
# Assay: DrugMatrix - Regimen: Daily Repeat
# Type: toxicity, organism-based, Sprague-Dawley
# Set-up: regimen Daily Repeat, gender Male, age 6-8 weeks
# Conditions: in vivo, po, route oral GAVAGE, […]; for ABSOLUTE BASOPHIL / ABSOLUTE EOSINOPHIL / ABSOLUTE LYMPHOCYTE / ABSOLUTE MONOCYTE / ABSOLUTE SEGMENTED NEUTROPHIL / BASOPHIL / EOSINOPHIL / ERYTHROCYTE COUNT / HEMATOCRIT / HEMOGLOBIN / LEUKOCYTE COUNT / LYMPHOCYTE / MEAN CORPUSCULAR HEMOGLOBIN / MEAN CORPUSCULAR HEMOGLOBIN CONCENTRATION / MEAN CORPUSCULAR VOLUME / MONOCYTE / NEUTROPHIL / NUCLEATED RED BLOOD CELLS / PLATELET COUNT: tissue Blood; for ALANINE AMINOTRANSFERASE / ALBUMIN / ALKALINE PHOSPHATASE / ASPARTATE AMINOTRANSFERASE / BLOOD UREA NITROGEN / CARBON DIOXIDE / CHLORIDE / CHOLESTEROL / CREATINE PHOSPHOKINASE / CREATININE / GLUCOSE / LACTATE DEHYDROGENASE / LIPASE / PHOSPHORUS / POTASSIUM / SODIUM / TOTAL BILIRUBIN / TOTAL PROTEIN / URIC ACID: tissue Plasma
# [1] = 10 mg/kg, 120 h, dose level Low, time 5 day
# [2] = 250 mg/kg, 72 h, dose level High, time 3 day
# [3] = 250 mg/kg, 120 h, dose level High, time 5 day
smiles,measurement,setting,value
COc1cc(N)c(Cl)cc1C(=O)NC1CCN(CCCOc2ccc(F)cc2)CC1OC (centres undefined) [CISAPRIDE],ABSOLUTE BASOPHIL,[1],0 CELLS/uL
same,ABSOLUTE EOSINOPHIL,[1],0 CELLS/uL
same,ABSOLUTE LYMPHOCYTE,[1],8665 CELLS/uL
same,ABSOLUTE MONOCYTE,[1],47.33 CELLS/uL
same,ABSOLUTE SEGMENTED NEUTROPHIL,[1],387.67 CELLS/uL
same,BASOPHIL,[1],0%
same,EOSINOPHIL,[1],0%
same,ERYTHROCYTE COUNT,[1],6.01 x10E6/uL
same,HEMATOCRIT,[1],36.43%
same,HEMOGLOBIN,[1],13.9 G/DL
same,LEUKOCYTE COUNT,[1],9.1 x10E3/uL
same,LYMPHOCYTE,[1],94.67%
same,MEAN CORPUSCULAR HEMOGLOBIN,[1],23.2 pg
same,MEAN CORPUSCULAR HEMOGLOBIN CONCENTRATION,[1],38.17 G/DL
same,MEAN CORPUSCULAR VOLUME,[1],60.73 fL
same,MONOCYTE,[1],0.67%
same,NEUTROPHIL,[1],4.67%
same,NUCLEATED RED BLOOD CELLS,[1],0.33 /100WBC
same,PLATELET COUNT,[1],1215.33 x10E3/uL
same,ALANINE AMINOTRANSFERASE,[1],83.67 u/L
same,ALBUMIN,[1],4.23 G/DL
same,ALKALINE PHOSPHATASE,[1],427.67 u/L
same,ASPARTATE AMINOTRANSFERASE,[1],78.33 u/L
same,BLOOD UREA NITROGEN,[1],13.67 mg/dL
same,CARBON DIOXIDE,[1],35 mmol/L
same,CHLORIDE,[1],99.33 MEQ/L
same,CHOLESTEROL,[1],86.33 mg/dL
same,CREATINE PHOSPHOKINASE,[1],161.33 u/L
same,CREATININE,[1],0.16 mg/dL
same,GLUCOSE,[1],163 mg/dL
same,LACTATE DEHYDROGENASE,[1],134.33 u/L
same,LIPASE,[1],11 u/L
same,PHOSPHORUS,[1],9.6 mg/dL
same,POTASSIUM,[1],5.19 MEQ/L
same,SODIUM,[1],143.17 MEQ/L
same,TOTAL BILIRUBIN,[1],0.17 mg/dL
same,TOTAL PROTEIN,[1],6.1 G/DL
same,URIC ACID,[1],0.37 mg/dL
same,ABSOLUTE BASOPHIL,[2],0 CELLS/uL
same,ABSOLUTE EOSINOPHIL,[2],36.33 CELLS/uL
same,ABSOLUTE LYMPHOCYTE,[2],10590.67 CELLS/uL
same,ABSOLUTE MONOCYTE,[2],0 CELLS/uL
same,ABSOLUTE SEGMENTED NEUTROPHIL,[2],573 CELLS/uL
same,BASOPHIL,[2],0%
same,EOSINOPHIL,[2],0.33%
same,ERYTHROCYTE COUNT,[2],5.39 x10E6/uL
same,HEMATOCRIT,[2],32.73%
same,HEMOGLOBIN,[2],13.17 G/DL
same,LEUKOCYTE COUNT,[2],11.2 x10E3/uL
same,LYMPHOCYTE,[2],94.67%
same,MEAN CORPUSCULAR HEMOGLOBIN,[2],24.43 pg
same,MEAN CORPUSCULAR HEMOGLOBIN CONCENTRATION,[2],40.2 G/DL
same,MEAN CORPUSCULAR VOLUME,[2],60.73 fL
same,MONOCYTE,[2],0%
same,NEUTROPHIL,[2],5%
same,NUCLEATED RED BLOOD CELLS,[2],0 /100WBC
same,PLATELET COUNT,[2],918 x10E3/uL
same,ALANINE AMINOTRANSFERASE,[2],102.67 u/L
same,ALBUMIN,[2],3.83 G/DL
same,ALKALINE PHOSPHATASE,[2],517.33 u/L
same,ASPARTATE AMINOTRANSFERASE,[2],96 u/L
same,BLOOD UREA NITROGEN,[2],13 mg/dL
same,CARBON DIOXIDE,[2],26 mmol/L
same,CHLORIDE,[2],95 MEQ/L
same,CHOLESTEROL,[2],89.67 mg/dL
same,CREATINE PHOSPHOKINASE,[2],253 u/L
same,CREATININE,[2],0.15 mg/dL
same,GLUCOSE,[2],137.33 mg/dL
same,LACTATE DEHYDROGENASE,[2],118.33 u/L
same,LIPASE,[2],12.33 u/L
same,PHOSPHORUS,[2],10.77 mg/dL
same,POTASSIUM,[2],5.65 MEQ/L
same,SODIUM,[2],138.1 MEQ/L
same,TOTAL BILIRUBIN,[2],0.17 mg/dL
same,TOTAL PROTEIN,[2],5.5 G/DL
same,URIC ACID,[2],0.6 mg/dL
same,ABSOLUTE BASOPHIL,[3],0 CELLS/uL
same,ABSOLUTE EOSINOPHIL,[3],43.33 CELLS/uL
same,ABSOLUTE LYMPHOCYTE,[3],8832 CELLS/uL
same,ABSOLUTE MONOCYTE,[3],95.67 CELLS/uL
same,ABSOLUTE SEGMENTED NEUTROPHIL,[3],595.67 CELLS/uL
same,BASOPHIL,[3],0%
same,EOSINOPHIL,[3],0.33%
same,ERYTHROCYTE COUNT,[3],5.74 x10E6/uL
same,HEMATOCRIT,[3],35.13%
same,HEMOGLOBIN,[3],13.57 G/DL
same,LEUKOCYTE COUNT,[3],9.57 x10E3/uL
same,LYMPHOCYTE,[3],92%
same,MEAN CORPUSCULAR HEMOGLOBIN,[3],23.67 pg
same,MEAN CORPUSCULAR HEMOGLOBIN CONCENTRATION,[3],38.63 G/DL
same,MEAN CORPUSCULAR VOLUME,[3],61.23 fL
same,MONOCYTE,[3],1%
same,NEUTROPHIL,[3],6.67%
same,NUCLEATED RED BLOOD CELLS,[3],0.67 /100WBC
same,PLATELET COUNT,[3],1240.33 x10E3/uL
same,ALANINE AMINOTRANSFERASE,[3],89 u/L
same,ALBUMIN,[3],3.93 G/DL
same,ALKALINE PHOSPHATASE,[3],342 u/L
same,ASPARTATE AMINOTRANSFERASE,[3],87.67 u/L
same,BLOOD UREA NITROGEN,[3],14.67 mg/dL
same,CARBON DIOXIDE,[3],34 mmol/L
same,CHLORIDE,[3],99.5 MEQ/L
same,CHOLESTEROL,[3],78.33 mg/dL
same,CREATINE PHOSPHOKINASE,[3],245 u/L
same,CREATININE,[3],0.15 mg/dL
same,GLUCOSE,[3],170.67 mg/dL
same,LACTATE DEHYDROGENASE,[3],145 u/L
same,LIPASE,[3],12.67 u/L
same,PHOSPHORUS,[3],10.53 mg/dL
same,POTASSIUM,[3],5.47 MEQ/L
same,SODIUM,[3],141.95 MEQ/L
same,TOTAL BILIRUBIN,[3],0.17 mg/dL
same,TOTAL PROTEIN,[3],5.57 G/DL
same,URIC ACID,[3],0.67 mg/dL
